Results as given in patent US20200369728A1, “PEPTIDOMIMETIC MACROCYCLES AND USES THEREOF” (Aileron Therapeutics, Inc., priority 2015, published 2020).
Bridge positions count the residues as written; N and C are the ends. Square brackets hold non-standard residues; d marks the D form. Peptide text beside a SMILES is read from it. Phe(3,4-F2) = N[C@@H](Cc1ccc(F)c(F)c1)C(=O)O; 2Nal = N[C@@H](Cc1ccc2ccccc2c1)C(=O)O; R8 = C=CCCCCCC[C@@](C)(N)C(=O)O; Cba = N[C@@H](CC1CCC1)C(=O)O; S5 = C=CCCC[C@](C)(N)C(=O)O; Nle = CCCC[C@H](N)C(=O)O

How the values were obtained:
SJSA-1 cells = experiment: Cell lysis by peptidomimetic macrocycles (LDH release); assay type: cell-based; conditions: SJSA-1, 1 h
Outline: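 SJSA-1 cells plated the day before, switched to RPMI with 1% FBS, then exposed 1 h at 37 °C to macrocycle at final 50 μM to 6.25 μM in 0.5% DMSO. LDH released into the supernatant was measured by kit. Controls: 0.5% DMSO (non-lytic), 10 μM melittin and 1% Triton X-100 (lytic).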

Caspase 3 = Caspase 3 detection assay in SJSA1 cells; assay type: cell-based; conditions: SJSA1, 48 h, Caspase 3 activation over DMSO-treated cells

Row | SMILES | 6.25 μM % Lysed cells (1 h LDH) (SJSA-1 cells) [%] | 25 μM % Lysed cells (1 h LDH) (SJSA-1 cells) [%] | 50 μM % Lysed cells (1 h LDH) (SJSA-1 cells) [%] | caspase 0.3 μM (Caspase 3) | caspase 3 μM (Caspase 3) | caspase 10 μM (Caspase 3) | caspase 30 μM (Caspase 3) | caspase 1 μM (Caspase 3)
1 | CC(=O)N[C@@H](CCC(=O)O)C(=O)N[C@H](C(=O)N[C@@H](Cc1ccccc1)C(=O)N[C@]1(C)CCCCCCC=CCCC[C@@](C)(C(=O)N[C@@H](CO)C(=O)N[C@H](C(=O)N[C@@H](CO)C(N)=O)C(C)C)NC(=O)[C@H](CC(C)C)NC(=O)[C@H](CCC(N)=O)NC(=O)[C@H](C)NC(=O)[C@H](Cc2c[nH]c3ccccc23)NC(=O)[C@H](Cc2ccc(O)cc2)NC(=O)[C@H](C(C)C)NC1=O)[C@@H](C)O [compound 130] (Ac-ETF[R8]VYWAQL[S5]SVS-NH2; staple 4-11) | 1 | 0 | −1 | 1 | 2 | 6 | 17 | 
2 | CC(=O)N[C@@H](CC(C)C)C(=O)N[C@H](C(=O)N[C@@H](Cc1ccccc1)C(=O)N[C@]1(C)CCCCCCC=CCCC[C@@](C)(C(=O)N[C@@H](CO)C(=O)N[C@@H](C)C(=O)N[C@@H](C)C(N)=O)NC(=O)[C@H](CC2CCC2)NC(=O)[C@H](CCC(N)=O)NC(=O)[C@H](C)NC(=O)[C@H](Cc2ccc3ccccc3c2)NC(=O)[C@H](Cc2ccc(O)cc2)NC(=O)[C@H](CCC(=O)O)NC1=O)[C@@H](C)O [compound 254] (Ac-LTF[R8]EY[2Nal]AQ[Cba][S5]SAA-NH2; staple 4-11) | 11 | 60 | 75 | 1 | 7 | 14 | 22 | 3
3 | CCCC[C@H](NC(=O)[C@H](C)NC(=O)[C@H](CO)NC(=O)[C@]1(C)CCCC=CCCCCCC[C@@](C)(NC(=O)[C@H](Cc2ccc(F)c(F)c2)NC(=O)[C@@H](NC(=O)[C@H](CC(C)C)NC(C)=O)[C@@H](C)O)C(=O)N[C@@H](CCC(=O)O)C(=O)N[C@@H](Cc2ccc(O)cc2)C(=O)N[C@@H](Cc2c[nH]c3ccccc23)C(=O)N[C@@H](C)C(=O)N[C@@H](CCC(N)=O)C(=O)N[C@@H](CC2CCC2)C(=O)N1)C(=O)N[C@@H](C)C(N)=O [compound 243] (Ac-LT[Phe(3,4-F2)][R8]EYWAQ[Cba][S5]SA[Nle]A-NH2; staple 4-11) | 4 | 39 | 64 | 1 | 2 | 5 | 23 | 
4 | CC[C@H](C)[C@H](NC(=O)[C@H](C)NC(=O)[C@H](CO)NC(=O)[C@]1(C)CCCC=CCCCCCC[C@@](C)(NC(=O)[C@H](Cc2ccccc2)NC(=O)[C@@H](NC(=O)[C@H](CC(C)C)NC(C)=O)[C@@H](C)O)C(=O)N[C@@H](C)C(=O)N[C@@H](Cc2ccc(O)cc2)C(=O)N[C@@H](Cc2c[nH]c3ccccc23)C(=O)N[C@@H](C)C(=O)N[C@@H](CCC(N)=O)C(=O)N[C@@H](CC(C)C)C(=O)N1)C(N)=O [compound 8] (Ac-LTF[R8]AYWAQL[S5]SAI-NH2; staple 4-11) | −1 | 1 | 1 |  | 1 | 19 | 25 | 
5 | CSCC[C@H](NC(=O)[C@H](C)NC(=O)[C@H](C)NC(=O)[C@]1(C)CCCC=CCCCCCC[C@@](C)(NC(=O)[C@H](Cc2ccccc2)NC(=O)[C@@H](NC(=O)[C@H](CC(C)C)NC(C)=O)[C@@H](C)O)C(=O)N[C@@H](C)C(=O)N[C@@H](Cc2ccc(O)cc2)C(=O)N[C@@H](Cc2c[nH]c3ccccc23)C(=O)N[C@@H](C)C(=O)N[C@@H](C)C(=O)N[C@@H](CC(C)C)C(=O)N1)C(=O)N[C@H](C)C(N)=O [compound 72] (Ac-LTF[R8]AYWAAL[S5]AAM[dA]-NH2; staple 4-11) | 2 | 0 | 3 | 1 | 1 | 4 | 10 | 
6 | CC(=O)N[C@@H](CC(C)C)C(=O)N[C@H](C(=O)N[C@@H](Cc1ccccc1)C(=O)N[C@]1(C)CCCCCCC=CCCC[C@@](C)(C(=O)N[C@@H](CO)C(=O)N[C@@H](C)C(=O)N[C@@H](CO)C(N)=O)NC(=O)[C@H](CC(C)C)NC(=O)[C@H](CCC(N)=O)NC(=O)[C@H](C)NC(=O)[C@H](Cc2c[nH]c3ccccc23)NC(=O)[C@H](Cc2ccc(O)cc2)NC(=O)[C@H](C(C)C)NC1=O)[C@@H](C)O (single isomer, unassigned) [compound 144] | 1 | −1 | 2 | 1 | 4 | 10 | 16 | 
7 | CC(=O)N[C@@H](CC(C)C)C(=O)N[C@H](C(=O)N[C@@H](Cc1ccccc1)C(=O)N[C@]1(C)CCCCCCC=CCCC[C@@](C)(C(=O)N[C@@H](C)C(=O)N[C@@H](C)C(=O)N[C@@H](Cc2ccccc2)C(=O)N[C@H](C)C(N)=O)NC(=O)[C@H](CC(C)C)NC(=O)[C@H](CCC(N)=O)NC(=O)[C@H](C)NC(=O)[C@H](Cc2c[nH]c3ccccc23)NC(=O)[C@H](Cc2ccc(O)cc2)NC(=O)[C@H](CCC(=O)O)NC1=O)[C@@H](C)O (single isomer, unassigned) [compound 218] | 0 | −4 | 1 | 1 | 2 | 8 | 18 | 
8 | CC(=O)N[C@@H](CC(C)C)C(=O)N[C@H](C(=O)N[C@@H](Cc1ccccc1)C(=O)N[C@]1(C)CCCCCCC=CCCC[C@@](C)(C(=O)N[C@@H](C)C(=O)N[C@@H](C)C(=O)N[C@H](C(=O)N[C@H](C)C(N)=O)C(C)C)NC(=O)[C@H](CC(C)C)NC(=O)[C@H](CCC(N)=O)NC(=O)[C@H](C)NC(=O)[C@H](Cc2c[nH]c3ccccc23)NC(=O)[C@H](Cc2ccc(O)cc2)NC(=O)[C@H](CCC(=O)O)NC1=O)[C@@H](C)O (single isomer, unassigned) [compound 221] | 3 | 3 | 11 | 1 | 3 | 6 | 12 | 
9 | CC(=O)N[C@@H](CC(C)C)C(=O)N[C@H](C(=O)N[C@@H](Cc1ccccc1)C(=O)N[C@]1(C)CCCCCCC=CCCC[C@@](C)(C(=O)N[C@@H](CO)C(=O)N[C@@H](C)C(=O)N[C@@H](C)C(N)=O)NC(=O)[C@H](C2CCCC2)NC(=O)[C@H](CCC(N)=O)NC(=O)[C@H](C)NC(=O)[C@H](Cc2c[nH]c3ccccc23)NC(=O)[C@H](Cc2ccc(O)cc2)NC(=O)[C@H](CCC(=O)O)NC1=O)[C@@H](C)O (single isomer, unassigned) [compound 149] | 6 | 7 | 21 | 1 | 2 | 4 | 10 | 
10 | CC(=O)N[C@@H](CC(C)C)C(=O)N[C@H](C(=O)N[C@@H](Cc1ccccc1)C(=O)N[C@]1(C)CCCCCCC=CCCC[C@@](C)(C(=O)N[C@@H](C)C(=O)N[C@@H](C)C(=O)N[C@@H](C)C(=O)N[C@@H](C)C(=O)N[C@@H](C)C(=O)N[C@H](C)C(N)=O)NC(=O)[C@H](CC2CCC2)NC(=O)[C@H](CCC(N)=O)NC(=O)[C@H](C)NC(=O)[C@H](Cc2c[nH]c3ccccc23)NC(=O)[C@H](Cc2ccc(O)cc2)NC(=O)[C@H](CCC(=O)O)NC1=O)[C@@H](C)O (single isomer, unassigned) [compound 347] | 0 | 0 | 0 | 2 | 5 | 8 | 29 | 3
11 | CC[C@H](C)[C@H](NC(=O)[C@H](C)NC(=O)[C@H](C)NC(=O)[C@]1(C)CCCC=CCCCCCC[C@@](C)(NC(=O)[C@H](Cc2ccccc2)NC(=O)[C@@H](NC(=O)[C@H](CC(C)C)NC(C)=O)[C@@H](C)O)C(=O)N[C@@H](CCC(=O)O)C(=O)N[C@@H](Cc2c[nH]cn2)C(=O)N[C@@H](Cc2c[nH]c3ccccc23)C(=O)N[C@@H](C)C(=O)N[C@@H](CCC(N)=O)C(=O)N[C@@H](CC(C)C)C(=O)N1)C(=O)N[C@H](C)C(N)=O (single isomer, unassigned) [compound 223] | −2 | −4 | −1 | 1 | 1 | 5 | 18 | 
12 | CC(=O)N[C@@H](CC(C)C)C(=O)N[C@H](C(=O)N[C@@H](Cc1ccccc1)C(=O)N[C@]1(C)CCCCCCC=CCCC[C@@](C)(C(=O)N[C@@H](C)C(=O)N[C@@H](C)C(=O)N[C@@H](C)C(=O)N[C@@H](C)C(=O)N[C@@H](C)C(=O)N[C@@H](C)C(=O)N[C@H](C)C(N)=O)NC(=O)[C@H](CC(C)C)NC(=O)[C@H](CCC(N)=O)NC(=O)[C@H](C)NC(=O)[C@H](Cc2c[nH]c3ccccc23)NC(=O)[C@H](Cc2ccc(O)cc2)NC(=O)[C@H](CCC(=O)O)NC1=O)[C@@H](C)O (single isomer, unassigned) [compound 343] | 0 | 0 | 0 | 1 | 2 | 5 | 29 | 1
